Data as given in patent US20220356163A1, “SMALL MOLECULE INHIBITORS OF Id PROTEINS” (MEMORIAL SLOAN KETTERING CANCER CENTER, priority 2019, published 2022).
pIC50: −log10 of the molar value.

Tests used:
[1] = target: T1, Id1 (59-104) (Mus musculus, UniProt P20067); test: UV crosslinking of AGX51-XL2 to purified Id1 with mass spectrometry; assay type: binding; settings: 10-fold excess of AGX51
T1 construct: 1 μg of purified Id1 (a.a.59-104) and 19.7 ng of AGX51-XL2; made in house; host or cells: E. coli Rosetta 2(DE3)
Description: Covalent binding of AGX51 derivative to Id1. An analog of AGX51 (AGX51-XL2) was used which contains a benzophenone photoreactive moiety. 1 μg of purified Id1 (a.a.59-104) and 19.7 ng of AGX51-XL2 (dissolved in DMSO) were combined, in the dark, and then exposed to UV light for 20 minutes, a negative control without UV exposure was also included. The samples were then run in the dark on a 15% denaturing gel, silver stained according to the manufacturers protocol (SilverQuest Staining Kit, Invitrogen, Grand Island, N.Y., USA) and bands were excised for mass spectrometry as described below.
In-gel digestion for mass spectrometry. In-gel digestion was performed using the method by Shevchenko et al. (Nat Protoc 1(6):2856-60 (2006)). Briefly, gel bands were excised, washed with 1:1 (Acetonitrile: 100 mM ammonium bicarbonate) for 30 minutes, dehydrated with 100% acetonitrile for 10 minutes until gel slices shrunk and excess acetonitrile was removed and slices were dried in a speed-vac for 10 minutes without heat. Gel slices were reduced with 5 mM DTT for 30 minutes at 56° C. in a thermostated mixer with gentle mixing, removed, allowed to cool to room temperature then alkylated with 11 mM IAA for 30 minutes in the dark. Gel slices were washed with 100 mM ammonium bicarbonate and 100% acetonitrile for 10 minutes each. […]

[2] = test system: PDX-BR11; test: MTT assay, PDX-BR11; assay type: cell-based; settings: 24 h, PDX-BR11, PDX cell line, read-out: IC50 value after 24 hours of treatment
From the text: The 4T1 murine mammary tumor cell line and nine breast cancer cell lines representing the major breast cancer subtypes (ER+, HER2+, and TNBC) including MDA-MB-157, MDA-MB-436, MDA-MB-231, MDA-MB-453, MDA-MB-361, BT-474, SK-BR-3, MCF-7 and T47-D will be grown in RPMI or DMEM (Dulbecco's Modified Eagle Medium) media supplemented with 10% FBS (fetal bovine serum), 1% penicillin-streptomycin and 1% L-Glutamine. Patient derived xenograft cell lines BR7, BR11, and IBT will be established directly from breast cancer bone metastases specimens surgically resected from patients with informed consent. BR7 and BR11 specimens will be obtained from ER positive (HER2 negative and PR negative) metastatic breast cancer patients, while the IBT specimen will be obtained from a metastatic, triple negative breast cancer patient. Fresh tumor tissues will be quickly washed with ice cold PBS and minced into about 1-3 mm pieces in MEM medium (without FBS) using sterile razor blades. […] The cells will be treated with either 100 μM DMSO, AGX51, or a compound of the present technology such as AGX-A. The cell morphology and growth will be monitored daily for 1 week by microscopy for changes in morphology or cell death. […] Absorbance will then measured at 570 nm using a plate reader (Synergy 2, BioTek). […]

T1 sequence (P20067 59-104): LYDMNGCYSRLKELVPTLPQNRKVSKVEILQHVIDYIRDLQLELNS

CCC(=O)N(CCC(c1ccc2c(c1)OCO2)c1ccccc1OC)Cc1ccccc1 (racemic) [AGX51, N-(3-(benzo[d][1,3]dioxol-5-yl)-3-(2-methoxyphenyl)propyl)-N-benzylpropionamide]
AGX51-XL2 binding to Id1 in presence of competitor [1]: significant decrease in AGX51-XL2 binding to Id1
pIC50 [2]: 4.73
